Entries after “also recorded” stand apart in the source; their conditions may differ.
Columns and labels:
[1] = tested on: CD4+ and CD8+ T cells; assay: CD20-TCB killing assay, inhibitors added after 18 hours: T cell activation; type: cell-based; settings: 100 nM added at 18 h
Method: (§1) FIG. 34. In vitro killing assay set-up. Cell Trace™ Violet (CTV) labelled WSU DLCL2 tumor cells were co-cultured together with PBMCs [E:T=200′000:20′000] and stimulated with CD20-TCB for 18 h.
(§2) In this assay, CTV labelled WSU DLCL2 tumors cells were co-cultured with PBMCs in the presence of escalating doses of CD20-TCB for 18 hours.

[2] = tested on: CD4+ and CD8+ T cells; assay: T cell activation (CD25, CD69 by flow cytometry) in CEA-TCB killing assay; type: cell-based; settings: 10 nM CEA-TCB
[3] = tested on: CD20-TCB-induced cytokine release; assay: CD20-TCB-induced cytokine release (Luminex); type: cell-based; settings: 24 h
Method: A similar experiment was conducted with another TCB.
(§3) A similar experiment was conducted with CD20-TCB.
(§4) A similar experiment was conducted with CD20-TCB. WSU DLCL2 cells were co-cultured together with PBMCs in the presence of 1 nM CD20-TCB, and escalating everolimus doses ranging from 0 nM to 1000 nM (FIG. 13).
(§5) A similar experiment was conducted with CD20-TCB. WSU DLCL2 cells were co-cultured together with PBMCs in the presence of 1 nM CD20-TCB, and escalating ruxolitinib doses ranging from 0 nM to 1000 nM (FIG. 13).
(§6) A similar experiment was conducted with another TCB. […] The killing of B cells was measured as a readout for the impact of the various compounds on TCB efficacy at 24 h (FIGS. 27 and 28). […] Lastly, the levels of cytokines (TNF-α, IFN-γ, IL-2, IL-6, IL-4, IL-10, GM-CSF and IL-1β) were analyzed by Luminex at assay endpoint to assess the impact of the different treatments on TCB-induced cytokine release (FIGS. 32 and 33).
(§7) At 24 hours, tumor cell killing was measured by flow cytometry by exclusion of dead CTV cells. The supernatants were collected and cytokines were measured by Luminex.

[4] = tested on: CEA-TCB-induced cytokine release; assay: CEA-TCB-induced cytokine release (Luminex, supernatants); settings: 10 nM CEA-TCB
Method: The levels of cytokines were measured by Luminex in the supernatants of the assay to determine the impact of the different compounds on CEA-TCB-induced cytokine release.

[5] = tested on: CD4+ and CD8+ T cells; assay: T cell activation (CD25, CD69) in CD20-TCB killing assay; type: cell-based; settings: 1 nM CD20-TCB; 24 h; inhibitor 0 nM to 1000 nM
Method: (§8) A similar experiment was conducted with another TCB. WSU DLCL2 cells were co-cultured together with PBMCs in the presence of 1 nM CD20-TCB (SEQ ID NOs 4-11, 24-35), and escalating sirolimus doses ranging from 0 nM to 1000 nM (FIG. 13).
as §3, §4, §5, §6, §7

[6] = tested on: WSU DLCL2 tumor cells; assay: killing assay with PBMCs, CTV labelled WSU DLCL2 tumor cells and CD20-TCB; type: cell-based; settings: 24 h
Method: FIG. 13. In vitro killing assay set-up.
FIG. 14. […] At 24 hours, the tumor cells and PBMCs from technical replicates were pooled and stained with a LIVE/DEAD™ Near-IR dead cell dye to allow exclusion of dead CTV labelled WSU DLCL2 tumor cells by flow cytometry. Mean of n=3 donors+/−SEM.
as §8, §6, §7

[7] = tested on: A375 NucLight Red (NLR) target-cells; assay: killing assay with PBMCs, A375 NLR target cells and MAGEA4-TCB (Incucyte); type: cell-based; settings: 8 nM MAGEA4-TCB; escalating inhibitor concentrations
[8] = tested on: MAGEA4-TCB-induced cytokine release; assay: MAGEA4-TCB-induced cytokine release; type: cell-based; settings: 8 nM MAGEA4-TCB, 72 hours
Method: FIG. 45. Effect of escalating concentrations (c) of ruxolitinib on IFN-γ (A), IL-2 (B), TNF-α (C), GM-CSF (D), IL-6 (E), IL-1β (F), IL-8 (G), MCP-1 (H) and IL-10 (I) levels induced by 8 nM MAGEA4-TCB. At 72 hours, the supernatants were collected and cytokines were analyzed by cytometric bead array (CBA). Mean of technical replicates+/−SD for 1 representative donor.
FIG. 47. […] At 72 hours, the supernatants were collected and cytokines were analyzed by CBA. Mean of technical replicates+/−SD for 1 representative donor.
The effect of ruxolitinib on TCB-induced tumor cell killing and cytokine release was assessed using an additional TCB, the MAGEA4-TCB (SEQ ID NOs 37-56).

[9] = tested on: SUDLH-8 tumor cells; assay: killing assay with PBMCs, CTV labelled SUDLH-8 tumor cells and CD19-TCB; type: cell-based; settings: 24 hrs; 100 nM kinase inhibitors or dexamethasone, 5 μg/mL antibodies
Method: FIG. 64. In vitro killing assay set-up. PBMCs were co-cultured with CellTrace™ Violet (CTV) labelled SUDLH-8 tumor cells (E:T=10:1) in the presence of escalating concentrations of CD19-TCB in media supplemented with the different kinase inhibitors (100 nM) for 24 hrs.
FIG. 69. In vitro killing assay set-up. PBMCs were co-cultured with CTV labelled SUDLH-8 cells (E:T=10:1) in the presence of escalating concentrations of CD19-TCB in media supplemented with the different JAK inhibitors (100 nM) for 24 hrs.
FIG. 73. In vitro killing assay set-up.
PBMCs were co-cultured together with CellTrace™ Violet (CTV) labelled SUDLH-8 tumor cells and escalating concentrations of CD19-TCB in the presence of the different kinase inhibitors, including also the Src inhibitor dasatinib (FIG. 64). At assay endpoint (24 hrs), the killing of CTV labelled SUDLH-8 cells was measured by flow cytometry by exclusion of the dead SUDLH-8 cells with a Live/Dead stain. […] Lastly, the levels of cytokines were measured in the supernatants of the assay to evaluate the effect of mTOR, JAK and Src inhibitors on CD19-TCB-induced cytokine release.
(§9) At assay endpoint (24 hrs), the killing of CTV labelled SUDLH-8 cells was measured by flow cytometry by exclusion of the dead SUDLH-8 cells with a Live/Dead stain. […] Lastly, the levels of cytokines were measured in the supernatants of the assay to assess the effect of the JAK inhibitors on CD19-TCB-induced cytokine release.
as §9, with “stain to evaluate the effect of the different mitigation approaches on CD19-TCB-dependent killing.” for “stain.”, “address” for “assess”

[10] = tested on: WSU DLCL2 tumor cells; assay: CD20-TCB killing assay, inhibitors added after 18 hours of activation: tumor cell killing; type: cell-based; settings: 100 nM added at 18 h
Method: as §1, §2

[11] = 1 nM CD20-TCB, three donors, between 18 hours and 44 hours
[12] = measured at 44 hours, escalating CD20-TCB
[13] = 66 h, fixed compound concentrations

SMILES: N#CC[C@H](C1CCCC1)n1cc(-c2ncnc3[nH]ccc23)cn1 [ruxolitinib, Ruxolitinib]
- T cell activation [1, 11]: did not impact further
- T cell activation [1, 12]: did not impact
- T cell activation triggered by the TCB ([2]; summary statement, also for target cell killing): does not fully inhibit
- CD25 and CD69 expression on CD4+ and CD8+ T cells (T cell activation) [2, 13]: milder impact
- expression of CD25 and CD69 on both CD4+ and CD8+ T cells ([2]; 69 h, escalating doses): dose-dependently influenced
- release of TNF-α, IL-2 and GM-CSF ([3]; 1 nM CD20-TCB): did not have a strong effect
- IL-6 and IFN-γ release induced by CD20-TCB ([3]; 1 nM CD20-TCB, concentrations above 25 nM): strongly reduced
- CD20-TCB-induced cytokine release ([3]; escalating CD20-TCB / 1 nM CD20-TCB, fixed compound concentrations): comparable effect to dexamethasone and dasatinib
- levels of IFN-γ, TNF-α, IL-2, IL-6, MCP-1, IL-8, IL-10, IL-4 and GM-CSF ([4]; assay endpoint 72 h (ruxolitinib 69 h), in comparison to samples without inhibitor): very low
- degree of inhibition of IFN-γ, TNF-α, GM-CSF, IL-6 and IL-8 levels ([4]; escalating concentrations, ruxolitinib vs. baricitinib): similar
- CEA-TCB induced cytokine release ([4]; even at the lowest doses tested): strongly downregulated; also recorded: strongly reduces
- IL-2 levels ([4]; 66 h, compared with the mTOR inhibitors): reduced IL-2 levels less strongly
- CEA-TCB-induced cytokine release [4, 13]: inhibited; also recorded: comparable to dexamethasone and dasatinib
- T cell activation (CD25 and CD69 on CD4+ and CD8+ T cells) [5]: did not fully inhibit
- CD20-TCB-mediated target cell killing ([6]; 1 nM CD20-TCB, inhibitor 0 nM to 1000 nM): did not fully inhibit
- killing of B cells ([6]; WSU cells with PBMCs, CD20-TCB, fixed compound concentrations): did neither prevent
- MAGEA4-TCB induced tumor cell killing [7]: did not prevent
- levels of GM-CSF and IL-2 [8]: not impacted
- levels of IFN-γ, TNF-α, IL-8, IL-6, MCP-1, IL-10 and IL-1β ([8]; with increasing concentrations): reduced
- CD19-TCB-dependent killing of CTV labelled SUDLH-8 cells [9]: did not prevent
- CTV labelled WSU DLCL2 tumor cell killing [10, 11]: did not impact further
- CTV labelled WSU DLCL2 tumor cell killing [10, 12]: did not impact

Source: patent publication US12629419B2, “Prevention or mitigation of T-cell engaging agent-related adverse effects” (Hoffmann-La Roche Inc., priority 2020, dated 2026)
